# Source: US20240374595A1, “SUBSTITUTED 1,1'-BIPHENYL COMPOUNDS, ANALOGUES THEREOF, AND METHODS USING SAME” (Arbutus Biopharma Corporation, priority 2018, published 2024)
# pIC50: −log10 of the molar value.
# Target: PD-L1 (Homo sapiens (Human), UniProt Q9NZQ7)
# Experiment: PD-L1 HTRF assay (PD-1/PD-L1 interaction)
# Assay type: binding
# Conditions: PD-L1 His 6 nM, PD-1 Fc 6 nM; inhibitors 3-fold diluted from 20 μM
# Protocol: PD-L1 small molecule inhibitors were diluted by 3-fold starting from 20 μM and a final concentration of 0.001 μM and added to the well. PD-1 Fc protein was added at the final concentration of 6 nM. PD-L1 His protein, PD-L1 small molecule inhibitors, and PD1 Fc proteins were added to the well in this order, with each 5 μl volume, and were incubated for 15 minutes at room temperature. […] The plate was read using PerkinElmer Envision plate reader and data was analyzed by Prism 6 software.
# PD-L1, sequence (Q9NZQ7 19-238): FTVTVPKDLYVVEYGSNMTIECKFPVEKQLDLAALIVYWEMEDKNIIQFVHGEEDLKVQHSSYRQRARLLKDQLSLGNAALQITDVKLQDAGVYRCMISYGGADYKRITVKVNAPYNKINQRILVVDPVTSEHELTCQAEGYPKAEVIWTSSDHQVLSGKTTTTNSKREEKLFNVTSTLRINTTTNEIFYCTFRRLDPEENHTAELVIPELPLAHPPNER
row,Structure (SMILES),pIC50
1,"CC(=O)NCc1c[nH]c(-c2ccc(OCc3cccc(-c4ccccc4)c3C)cc2OCc2cccc(C#N)c2)n1 [Example 8, N-[[2-[2-[(3-Cyanophenyl)methoxy]-4-[(2-methyl-3-phenyl-phenyl)methoxy]phenyl]-1H-imidazol-4-yl]methyl]acetamide]",4.72
2,"Cc1c(COc2cc(OCc3cncc(C#N)c3)c(C3=NC(C(=O)O)CN3)cc2Cl)cccc1-c1cccc(OCCCN2CCC(O)CC2)c1C (stereo not shown) [Example 19, 2-[5-Chloro-2-[(5-cyano-3-pyridyl)methoxy]-4-[[3-[3-[3-(4-hydroxy-1-piperidyl)propoxy]-2-methyl-phenyl]-2-methyl-phenyl]methoxy]phenyl]-4,5-dihydro-1H-imidazole-4-carboxylic acid]",8.92
3,"Cc1c(COc2cc(OCc3cncc(C#N)c3)c(C3=NC(C(=O)O)CCN3)cc2Cl)cccc1-c1cccc(OCCCN2CCC(O)CC2)c1C (stereo not shown) [Example 18, 2-[5-Chloro-2-[(5-cyano-3-pyridyl)methoxy]-4-[[3-[3-[3-(4-hydroxy-1-piperidyl)propoxy]-2-methyl-phenyl]-2-methyl-phenyl]methoxy]phenyl]-1,4,5,6-tetrahydropyrimidine-4-carboxylic acid]",8.92
4,"Cc1c(NC(=O)c2ccc(CNCCO)cn2)cccc1-c1cccc(NC(=O)c2ccc(CNCCO)cn2)c1C [Example 34, 5-[(2-Hydroxyethylamino)methyl]-N-[3-[3-[[5-[(2-hydroxyethylamino)methyl]pyridine-2-carbonyl]amino]-2-methyl-phenyl]-2-methyl-phenyl]pyridine-2-carboxamide]",9.00
